Patent EP3375430A1, “FRAGRANCE COMPOSITIONS” (Takasago International Corporation, priority 2017, dated 2018)

Assays:
[1] = Amount of fragrance ingredients retained on paper blotter after evaporation (ethanol extraction, GC-MS); format: physicochemical
In short: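 100 µL of fragrance formulation applied to paper blotters kept at 32°C open to air; at each time three blotters extracted 1 h in ethanol with methyl decanoate internal standard and analysed by GC-MS (HP-5MS, 50–280°C). Amounts averaged over triplicates and expressed as percent of time-zero level.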

[2] = Headspace concentration of fragrance ingredients over blotter (thermal desorption GC-MS); format: physicochemical; conditions: fragrance TAK;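 on headspace concentration in composition C1 compared to control EdT1: C1 is an invention composition and EdT1 a conventional EdT of fragrance TAK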
In short: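 Fragrance (100µL) applied to a 10 cm perfumers' blotter held on a 32°C hot plate, equilibrated 5 min; headspace drawn through Tenax TA tubes at 17mL/min until 280mL collected, repeated at later sampling times. Tubes thermally desorbed splitless onto HP-5MS column, GC-MS detection, mass range 35 to 350.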

[3] = Table 3, fragrance TAK in C1, 15 min, 32°C
[4] = Table 3, fragrance TAK in C1, 60 min, 32°C
[5] = Table 3, fragrance TAK in C1, 120 min, 32°C
[6] = Table 3, fragrance TAK in C1, 240 min, 32°C
[7] = Table 3, fragrance TAK in C1, 480 min, 32°C
[8] = Table 3, fragrance TAK in EdT1, 15 min, 32°C
[9] = Table 3, fragrance TAK in EdT1, 60 min, 32°C
[10] = Table 3, fragrance TAK in EdT1, 120 min, 32°C
[11] = Table 3, fragrance TAK in EdT1, 240 min, 32°C
[12] = Table 3, fragrance TAK in EdT1, 480 min, 32°C
[13] = Table 3, fragrance TAK in EdT1 or C1, T0, set at 100% (normalisation)
[14] = Table 4, fragrance TAK in C2, 15 min, 32°C
[15] = Table 4, fragrance TAK in C2, 480 min, 32°C
[16] = Table 4, fragrance TAK in EdT1, 15 min, 32°C
[17] = Table 4, fragrance TAK in EdT1, 480 min, 32°C
[18] = Table 4, fragrance TAK in EdT1 or C2, T0, set at 100% (normalisation)
[19] = Table 5, fragrance TAK in C3, 15 min, 32°C
[20] = Table 5, fragrance TAK in C3, 60 min, 32°C
[21] = Table 5, fragrance TAK in C3, 120 min, 32°C
[22] = Table 5, fragrance TAK in C3, 240 min, 32°C
[23] = Table 5, fragrance TAK in C3, 480 min, 32°C
[24] = Table 5, fragrance TAK in C3, 1440 min, 32°C
[25] = Table 5, fragrance TAK in EdT1, 15 min, 32°C
[26] = Table 5, fragrance TAK in EdT1, 60 min, 32°C
[27] = Table 5, fragrance TAK in EdT1, 120 min, 32°C
[28] = Table 5, fragrance TAK in EdT1, 240 min, 32°C
[29] = Table 5, fragrance TAK in EdT1, 480 min, 32°C
[30] = Table 5, fragrance TAK in EdT1, 1440 min, 32°C
[31] = Table 5, fragrance TAK in EdT1 or C3, T0, set at 100% (normalisation)
[32] = Table 6, fragrance TAK in C4, 15 min, 32°C
[33] = Table 6, fragrance TAK in C4, 60 min, 32°C
[34] = Table 6, fragrance TAK in C4, 120 min, 32°C
[35] = Table 6, fragrance TAK in C4, 240 min, 32°C
[36] = Table 6, fragrance TAK in C4, 480 min, 32°C
[37] = Table 6, fragrance TAK in EdT1, 15 min, 32°C
[38] = Table 6, fragrance TAK in EdT1, 60 min, 32°C
[39] = Table 6, fragrance TAK in EdT1, 120 min, 32°C
[40] = Table 6, fragrance TAK in EdT1, 240 min, 32°C
[41] = Table 6, fragrance TAK in EdT1, 480 min, 32°C
[42] = Table 6, fragrance TAK in EdT1 or C4, T0, set at 100% (normalisation)

In the case of C=C(C)[C@H]1CC=C(C)CC1 [Limonene], the “amount of fragrance ingredient retained on blotter (percentage of the initial amount)” value (“amount … (percentage of the initial amount)” for short) [1, 3] is reported as 18%, the “amount … (percentage of the initial amount)” value [1, 4] is reported as 1% and the “amount … (percentage of the initial amount)” value [1, 5] is reported as 1%. The “amount … (percentage of the initial amount)” value [1, 6] was 1%, the “amount … (percentage of the initial amount)” value [1, 7] was less than 1% and the “amount … (percentage of the initial amount)” value [1, 8] was 1%. For the same compound, the “amount … (percentage of the initial amount)” value [1, 9] was less than 1%, the “amount … (percentage of the initial amount)” value [1, 10] was less than 1% and the “amount … (percentage of the initial amount)” value [1, 11] was less than 1%. The “amount … (percentage of the initial amount)” value [1, 12] was less than 1%, the “amount … (percentage of the initial amount)” value [1, 13] was 100% and the “amount … (percentage of the initial amount)” value [1, 14] was 29%. For the same compound, the “amount … (percentage of the initial amount)” value [1, 15] was less than 1%, the “amount … (percentage of the initial amount)” value [1, 16] was 2% and the “amount … (percentage of the initial amount)” value [1, 17] was less than 1%. For the same compound, the “amount … (percentage of the initial amount)” value [1, 18] was 100%, the “amount … (percentage of the initial amount)” value [1, 19] was 19% and the “amount … (percentage of the initial amount)” value [1, 20] was less than 1%. For the same compound, the “amount … (percentage of the initial amount)” value [1, 21] was less than 1%, the “amount … (percentage of the initial amount)” value [1, 22] was less than 1% and the “amount … (percentage of the initial amount)” value [1, 23] was less than 1%. For the same compound, the “amount … (percentage of the initial amount)” value [1, 24] was less than 1%, the “amount … (percentage of the initial amount)” value [1, 25] was 1% and the “amount … (percentage of the initial amount)” value [1, 26] was less than 1%. The “amount … (percentage of the initial amount)” value [1, 27] was less than 1%, the “amount … (percentage of the initial amount)” value [1, 28] was less than 1% and the “amount … (percentage of the initial amount)” value [1, 29] was less than 1%. The “amount … (percentage of the initial amount)” value [1, 30] was less than 1%, the “amount … (percentage of the initial amount)” value [1, 31] was 100% and the “amount … (percentage of the initial amount)” value [1, 32] was 17%. For the same compound, the “amount … (percentage of the initial amount)” value [1, 33] was less than 1%, the “amount … (percentage of the initial amount)” value [1, 34] was 1% and the “amount … (percentage of the initial amount)” value [1, 35] was 1%. For the same compound, the “amount … (percentage of the initial amount)” value [1, 36] was 1%, the “amount … (percentage of the initial amount)” value [1, 37] was 1% and the “amount … (percentage of the initial amount)” value [1, 38] was less than 1%. The “amount … (percentage of the initial amount)” value [1, 39] was less than 1%, the “amount … (percentage of the initial amount)” value [1, 40] was less than 1% and the “amount … (percentage of the initial amount)” value [1, 41] was less than 1%. The “amount … (percentage of the initial amount)” value [1, 42] was 100%, the “amount … (percentage of the initial amount)” value ([1]; Table 9, fragrance COM1 in C5, T0 + 15 min) was 11.32% and the “amount … (percentage of the initial amount)” value ([1]; Table 9, fragrance COM1 in C5, T0 + 480 min) was less than 1%. The “amount … (percentage of the initial amount)” value ([1]; Table 9, fragrance COM1 in C5, T0 +1440 min) was less than 1%, the “amount … (percentage of the initial amount)” value ([1]; Table 9, fragrance COM1 in C6, T0 + 15 min) was 6.6% and the “amount … (percentage of the initial amount)” value ([1]; Table 9, fragrance COM1 in C6, T0 + 480 min) was less than 1%. For the same compound, the “amount … (percentage of the initial amount)” value ([1]; Table 9, fragrance COM1 in C6, T0 +1440 min) was less than 1%, the “amount … (percentage of the initial amount)” value ([1]; Table 9, fragrance COM1 in EdT2, C5 or C6, T0, set at 100% (normalisation)) was 100% and the “amount … (percentage of the initial amount)” value ([1]; Table 9, fragrance COM1 in EdT2, T0 + 15 min) was 1.33%. The “amount … (percentage of the initial amount)” value ([1]; Table 9, fragrance COM1 in EdT2, T0 + 480 min) was less than 1%, the “amount … (percentage of the initial amount)” value ([1]; Table 9, fragrance COM1 in EdT2, T0 +1440 min) was less than 1% and the “headspace presence of ingredient” value ([2]; after 1 hour, both control EdT1 and composition C1, Figure 2) was “lost”.
In the case of C=CC(C)(O)CCC=C(C)C (stereo not drawn) [Linalool], the “amount … (percentage of the initial amount)” value [1, 3] is reported as 80%, the “amount … (percentage of the initial amount)” value [1, 4] is reported as 61% and the “amount … (percentage of the initial amount)” value [1, 5] is reported as 35%. For the same compound, the “amount … (percentage of the initial amount)” value [1, 6] was 13%, the “amount … (percentage of the initial amount)” value [1, 7] was 3% and the “amount … (percentage of the initial amount)” value [1, 8] was 57%. The “amount … (percentage of the initial amount)” value [1, 9] was 9%, the “amount … (percentage of the initial amount)” value [1, 10] was 1% and the “amount … (percentage of the initial amount)” value [1, 11] was 1%. The “amount … (percentage of the initial amount)” value [1, 12] was less than 1%, the “amount … (percentage of the initial amount)” value [1, 13] was 100% and the “amount … (percentage of the initial amount)” value [1, 14] was 92%. For the same compound, the “amount … (percentage of the initial amount)” value [1, 15] was 4%, the “amount … (percentage of the initial amount)” value [1, 16] was 58% and the “amount … (percentage of the initial amount)” value [1, 17] was 3%. For the same compound, the “amount … (percentage of the initial amount)” value [1, 18] was 100%, the “amount … (percentage of the initial amount)” value [1, 19] was 85% and the “amount … (percentage of the initial amount)” value [1, 20] was 61%. For the same compound, the “amount … (percentage of the initial amount)” value [1, 21] was 37%, the “amount … (percentage of the initial amount)” value [1, 22] was 18% and the “amount … (percentage of the initial amount)” value [1, 23] was 3%. The “amount … (percentage of the initial amount)” value [1, 24] was 1%, the “amount … (percentage of the initial amount)” value [1, 25] was 57% and the “amount … (percentage of the initial amount)” value [1, 26] was 9%. For the same compound, the “amount … (percentage of the initial amount)” value [1, 27] was 1%, the “amount … (percentage of the initial amount)” value [1, 28] was less than 1% and the “amount … (percentage of the initial amount)” value [1, 29] was less than 1%. For the same compound, the “amount … (percentage of the initial amount)” value [1, 30] was less than 1%, the “amount … (percentage of the initial amount)” value [1, 31] was 100% and the “amount … (percentage of the initial amount)” value [1, 32] was 81%. For the same compound, the “amount … (percentage of the initial amount)” value [1, 33] was 61%, the “amount … (percentage of the initial amount)” value [1, 34] was 28% and the “amount … (percentage of the initial amount)” value [1, 35] was 13%. For the same compound, the “amount … (percentage of the initial amount)” value [1, 36] was 8%, the “amount … (percentage of the initial amount)” value [1, 37] was 57% and the “amount … (percentage of the initial amount)” value [1, 38] was 9%. The “amount … (percentage of the initial amount)” value [1, 39] was 1%, the “amount … (percentage of the initial amount)” value [1, 40] was less than 1% and the “amount … (percentage of the initial amount)” value [1, 41] was less than 1%. For the same compound, the “amount … (percentage of the initial amount)” value [1, 42] was 100%, the “headspace concentration in composition C1 compared to control EdT1” value ([2]; T0 + 4h, Figure 3) was “significantly greater” and the “headspace concentration in composition C14 compared to control EdT1” value ([2]; T0+4h and T0+8h, Figures 17 and 18) was “significantly greater”. For the same compound, the “headspace concentration in composition C15 compared to control EdT1” value ([2]; T0+4h and T0+8h, Figures 20 and 21, difference significant for linalool, linalyl acetate and Verdox™) was “greater”, the “headspace concentration in composition C1 compared to control EdT1” value ([2]; T0 + 8h, Figure 4) was “much greater” and the “headspace concentration in composition C1 compared to control EdT1” value ([2]; after 1 hour, Figure 2) was “greater”.
